# Results: US20250120961A1, “P53 MODULATORS” (Nested Therapeutics, Inc., priority 2023, published 2025)
# Molecular target: His-tagged p53-Y220C DNA binding domain (Homo sapiens, UniProt P04637, Y220C)
# Assay: Biochemical p53-Y220C and DNA binding assay (HTRF)
# Details: inflection point of 10 points dose titration, 4 parameter curve fit; p53-Y220C DBD 100 nM, biotinylated dsDNA 200 nM, 27 to 29° C.; read-out: HTRF IP
# Summary of the method: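 DBD (aa 94-312, 100 nM) mixed with compound and biotinylated consensus dsDNA (200 nM) in DPBS/20 mM NaCl/0.5% BSA, overnight at 4 °C, then 60 min at 27-29 °C; anti-His Tb/streptavidin-d2 HTRF read. Activation normalized to reference compound (500%) and DMSO (0%); 10-point curve, inflection point reported.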
row,Compound,EC50 [nM]
1,"Cc1oc(=O)oc1CO/N=C/c1sc2c(N[C@@H]3CNC[C@@H]3F)cccc2c1CC(F)(F)F [Example 2-20, (E)-7-(((3R,4S)-4-fluoropyrrolidin-3-yl)amino)-3-(2,2,2-trifluoroethyl)benzo[b]thiophene-2-carbaldehyde O-((5-methyl-2-oxo-1,3-dioxol-4-yl)methyl) oxime]",100 to 1000
2,"CN1C[C@H](F)[C@H](Nc2cccc3c(CC(F)(F)F)c(/C=N/OCC(C)(C)O)sc23)C1 [Example 2-21, (E)-7-(((3R,4S)-4-fluoro-1-methylpyrrolidin-3-yl)amino)-3-(2,2,2-trifluoroethyl)benzo[b]thiophene-2-carbaldehyde O-(2-hydroxy-2-methylpropyl) oxime]",100 to 1000
3,"CC(C)N1C[C@H](F)[C@H](Nc2cccc3c(CC(F)(F)F)c(/C=N/OCC(C)(C)O)sc23)C1 [Example 2-22, (E)-7-(((3R,4S)-4-fluoro-1-isopropylpyrrolidin-3-yl)amino)-3-(2,2,2-trifluoroethyl)benzo[b]thiophene-2-carbaldehyde O-(2-hydroxy-2-methylpropyl) oxime]",< 100
4,"O=C1NCC(CO/N=C/c2sc3c(N[C@@H]4CNC[C@@H]4F)cccc3c2CC(F)(F)F)O1 (stereo partly drawn) [Example 2-23, (E)-7-(((3R,4S)-4-fluoropyrrolidin-3-yl)amino)-3-(2,2,2-trifluoroethyl)benzo[b]thiophene-2-carbaldehyde O-((2-oxooxazolidin-5-yl)methyl) oxime]",100 to 1000
5,"F[C@H]1CNC[C@H]1Nc1cccc2c(CC(F)(F)F)c(/C=N/OC3CCC3)sc12 [Example 2-24, (E)-7-(((3R,4S)-4-fluoropyrrolidin-3-yl)amino)-3-(2,2,2-trifluoroethyl)benzo[b]thiophene-2-carbaldehyde O-cyclobutyl oxime]",100 to 1000
6,"CC(O/N=C/c1sc2c(N[C@@H]3CNC[C@@H]3F)cccc2c1CC(F)(F)F)c1cccnc1 (stereo partly drawn) [Example 2-25, (E)-7-(((3R,4S)-4-fluoropyrrolidin-3-yl)amino)-3-(2,2,2-trifluoroethyl)benzo[b]thiophene-2-carbaldehyde O-(1-(pyridin-3-yl)ethyl) oxime]",100 to 1000
7,"O=c1cccc(CO/N=C/c2sc3c(N[C@@H]4CNC[C@@H]4F)cccc3c2CC(F)(F)F)[nH]1 [Example 2-26, (E)-7-(((3R,4S)-4-fluoropyrrolidin-3-yl)amino)-3-(2,2,2-trifluoroethyl)benzo[b]thiophene-2-carbaldehyde O-((6-oxo-1,6-dihydropyridin-2-yl)methyl) oxime]",< 100
8,"COc1cccc(CO/N=C/c2sc3c(N[C@@H]4CCN(C)C[C@@H]4F)cccc3c2CC(F)(F)F)n1 [Example 2-27, (E)-7-(((3S,4R)-3-fluoro-1-methylpiperidin-4-yl)amino)-3-(2,2,2-trifluoroethyl)benzo[b]thiophene-2-carbaldehyde O-((6-methoxypyridin-2-yl)methyl) oxime]",100 to 1000
9,"COc1cccc(CO/N=C\c2sc3c(N[C@@H]4CCN(C)C[C@@H]4F)cccc3c2CC(F)(F)F)n1 [Example 2-28, (Z)-7-(((3S,4R)-3-fluoro-1-methylpiperidin-4-yl)amino)-3-(2,2,2-trifluoroethyl)benzo[b]thiophene-2-carbaldehyde O-((6-methoxypyridin-2-yl)methyl) oxime]",100 to 1000
10,"CN1CC[C@@H](Nc2cccc3c(CC(F)(F)F)c(/C=N/OCc4cccc(=O)n4C)sc23)[C@@H](F)C1 [Example 2-29, (E)-7-(((3S,4R)-3-fluoro-1-methylpiperidin-4-yl)amino)-3-(2,2,2-trifluoroethyl)benzo[b]thiophene-2-carbaldehyde O-((1-methyl-6-oxo-1,6-dihydropyridin-2-yl)methyl) oxime]",100 to 1000
11,"CN1CC[C@@H](Nc2cccc3c(CC(F)(F)F)c(/C=N\OCc4cccc(=O)n4C)sc23)[C@@H](F)C1 [Example 2-30, (Z)-7-(((3S,4R)-3-fluoro-1-methylpiperidin-4-yl)amino)-3-(2,2,2-trifluoroethyl)benzo[b]thiophene-2-carbaldehyde O-((1-methyl-6-oxo-1,6-dihydropyridin-2-yl)methyl) oxime]",100 to 1000
12,"CN1CC[C@@H](Nc2cccc3c(CC(F)(F)F)c(/C=N/OCc4cccc(=O)[nH]4)sc23)[C@@H](F)C1 [Example 2-31, (E)-7-(((3S,4R)-3-fluoro-1-methylpiperidin-4-yl)amino)-3-(2,2,2-trifluoroethyl)benzo[b]thiophene-2-carbaldehyde O-((6-oxo-1,6-dihydropyridin-2-yl)methyl) oxime]",< 100
13,"CN1CC[C@@H](Nc2cccc3c(SC(F)(F)F)c(/C=N/OCC(C)(C)O)sc23)[C@@H](F)C1 [Example 2-32, (E)-7-(((3S,4R)-3-fluoro-1-methylpiperidin-4-yl)amino)-3-((trifluoromethyl)thio)benzo[b]thiophene-2-carbaldehyde O-(2-hydroxy-2-methylpropyl) oxime]",100 to 1000
14,"CNC(=O)c1ccc(CO/N=C/c2sc3c(N[C@@H]4CCN(C)C[C@@H]4F)cccc3c2SC(F)(F)F)c(NC)c1 [Example 2-33, 4-(((((E)-(7-(((3S,4R)-3-fluoro-1-methylpiperidin-4-yl)amino)-3-((trifluoromethyl)thio)benzo[b]thiophen-2-yl)methylene)amino)oxy)methyl)-N-methyl-3-(methylamino)benzamide]",< 100
15,"CNC(=O)c1ccc(CO/N=C/c2oc3c(N[C@@H]4CCN(C)C[C@@H]4F)cccc3c2SC(F)(F)F)c(NC)c1 [Example 2-34, 4-(((((E)-(7-(((3S,4R)-3-fluoro-1-methylpiperidin-4-yl)amino)-3-((trifluoromethyl)thio)benzofuran-2-yl)methylene)amino)oxy)methyl)-N-methyl-3-(methylamino)benzamide]",> 1000
16,"F[C@H]1CNC[C@H]1Nc1cccc2c(CC(F)(F)F)c(/C=N/OC3CCOC3)sc12 (stereo partly drawn) [Example 3-1, (E)-7-(((3R,4S)-4-fluoropyrrolidin-3-yl)amino)-3-(2,2,2-trifluoroethyl)benzo[b]thiophene-2-carbaldehyde O-tetrahydrofuran-3-yl oxime]",< 100
17,"F[C@H]1CNC[C@H]1Nc1cccc2c(CC(F)(F)F)c(/C=N/OCc3cccnc3)sc12 [Example 3-2, (E)-7-(((3R,4S)-4-fluoropyrrolidin-3-yl)amino)-3-(2,2,2-trifluoroethyl)benzo[b]thiophene-2-carbaldehyde O-pyridin-3-ylmethyl oxime]",< 100
18,"F[C@H]1CNC[C@H]1Nc1cccc2c(CC(F)(F)F)c(/C=N/OCc3ccccn3)sc12 [Example 3-3, (E)-7-(((3R,4S)-4-fluoropyrrolidin-3-yl)amino)-3-(2,2,2-trifluoroethyl)benzo[b]thiophene-2-carbaldehyde O-pyridin-2-ylmethyl oxime]",100 to 1000
19,"Cn1cnc(CO/N=C/c2sc3c(N[C@@H]4CNC[C@@H]4F)cccc3c2CC(F)(F)F)n1 [Example 3-4, (E)-7-(((3R,4S)-4-fluoropyrrolidin-3-yl)amino)-3-(2,2,2-trifluoroethyl)benzo[b]thiophene-2-carbaldehyde O-((1-methyl-1H-1,2,4-triazol-3-yl)methyl) oxime]",100 to 1000
20,"F[C@H]1CNC[C@H]1Nc1cccc2c(CC(F)(F)F)c(/C=N/OCc3nc4ccccc4s3)sc12 [Example 3-5, (E)-7-(((3R,4S)-4-fluoropyrrolidin-3-yl)amino)-3-(2,2,2-trifluoroethyl)benzo[b]thiophene-2-carbaldehyde O-(benzo[d]thiazol-2-ylmethyl) oxime]",100 to 1000
